In ChEMBL document CHEMBL5465560, “Selectivity Literature for EUbOPEN Chemogenomic Library” (2024) one finds % of inhibition and % of control data, which are given here for six compounds.

The target in assay [1] is Mitogen-activated protein kinase 1 (Homo sapiens, UniProt P28482). The experiment in a line: Selectivity interaction (Rxn Biology Kinase assay) EUB0001632a MAPK1. The settings on record: at 10 µM.
Assay [2] has as its target Casein kinase I isoform alpha (Homo sapiens, UniProt P48729). The experiment in a line: Selectivity interaction (ActivX KiNativ screen (ex vivo kinase selectivity in human PBMCs)) EUB0001619a CSNK1A1. Format: cell-based. The settings on record: PBMC, at 1 µM.
For assay [3], the target named is T1, Serine/threonine-protein kinase PLK4 (Homo sapiens) (UniProt O00444).
T1 sequence (whole entry): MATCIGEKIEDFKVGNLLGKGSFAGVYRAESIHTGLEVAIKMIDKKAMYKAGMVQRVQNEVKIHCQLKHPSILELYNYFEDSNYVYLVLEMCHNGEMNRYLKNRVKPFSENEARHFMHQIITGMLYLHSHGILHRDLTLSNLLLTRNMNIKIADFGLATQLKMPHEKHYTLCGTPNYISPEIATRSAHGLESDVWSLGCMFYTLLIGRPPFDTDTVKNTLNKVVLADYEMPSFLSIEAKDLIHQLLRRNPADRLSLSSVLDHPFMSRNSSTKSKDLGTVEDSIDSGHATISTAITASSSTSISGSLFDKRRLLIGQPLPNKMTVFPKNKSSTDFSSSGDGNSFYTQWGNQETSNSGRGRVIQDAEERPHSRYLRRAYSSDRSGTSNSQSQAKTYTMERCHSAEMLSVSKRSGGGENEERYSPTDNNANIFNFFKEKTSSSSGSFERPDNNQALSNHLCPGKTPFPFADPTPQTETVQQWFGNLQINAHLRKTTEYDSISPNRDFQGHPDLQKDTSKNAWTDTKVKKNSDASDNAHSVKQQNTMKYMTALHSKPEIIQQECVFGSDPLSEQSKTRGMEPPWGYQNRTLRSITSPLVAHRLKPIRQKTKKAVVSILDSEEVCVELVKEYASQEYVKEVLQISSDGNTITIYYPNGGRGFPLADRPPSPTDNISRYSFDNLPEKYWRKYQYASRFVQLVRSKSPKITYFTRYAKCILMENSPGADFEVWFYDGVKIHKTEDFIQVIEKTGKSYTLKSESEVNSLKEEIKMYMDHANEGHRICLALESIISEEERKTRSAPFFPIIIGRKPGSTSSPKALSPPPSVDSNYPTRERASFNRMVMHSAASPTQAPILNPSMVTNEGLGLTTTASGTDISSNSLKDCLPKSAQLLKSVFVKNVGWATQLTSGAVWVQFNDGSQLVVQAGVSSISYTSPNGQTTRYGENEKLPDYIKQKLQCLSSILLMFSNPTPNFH
As to conditions: at 10 µM.

Assay [4] deals with T2, Serine/threonine-protein kinase LATS2 (Homo sapiens) (UniProt Q9NRM7).
T2 sequence (whole entry): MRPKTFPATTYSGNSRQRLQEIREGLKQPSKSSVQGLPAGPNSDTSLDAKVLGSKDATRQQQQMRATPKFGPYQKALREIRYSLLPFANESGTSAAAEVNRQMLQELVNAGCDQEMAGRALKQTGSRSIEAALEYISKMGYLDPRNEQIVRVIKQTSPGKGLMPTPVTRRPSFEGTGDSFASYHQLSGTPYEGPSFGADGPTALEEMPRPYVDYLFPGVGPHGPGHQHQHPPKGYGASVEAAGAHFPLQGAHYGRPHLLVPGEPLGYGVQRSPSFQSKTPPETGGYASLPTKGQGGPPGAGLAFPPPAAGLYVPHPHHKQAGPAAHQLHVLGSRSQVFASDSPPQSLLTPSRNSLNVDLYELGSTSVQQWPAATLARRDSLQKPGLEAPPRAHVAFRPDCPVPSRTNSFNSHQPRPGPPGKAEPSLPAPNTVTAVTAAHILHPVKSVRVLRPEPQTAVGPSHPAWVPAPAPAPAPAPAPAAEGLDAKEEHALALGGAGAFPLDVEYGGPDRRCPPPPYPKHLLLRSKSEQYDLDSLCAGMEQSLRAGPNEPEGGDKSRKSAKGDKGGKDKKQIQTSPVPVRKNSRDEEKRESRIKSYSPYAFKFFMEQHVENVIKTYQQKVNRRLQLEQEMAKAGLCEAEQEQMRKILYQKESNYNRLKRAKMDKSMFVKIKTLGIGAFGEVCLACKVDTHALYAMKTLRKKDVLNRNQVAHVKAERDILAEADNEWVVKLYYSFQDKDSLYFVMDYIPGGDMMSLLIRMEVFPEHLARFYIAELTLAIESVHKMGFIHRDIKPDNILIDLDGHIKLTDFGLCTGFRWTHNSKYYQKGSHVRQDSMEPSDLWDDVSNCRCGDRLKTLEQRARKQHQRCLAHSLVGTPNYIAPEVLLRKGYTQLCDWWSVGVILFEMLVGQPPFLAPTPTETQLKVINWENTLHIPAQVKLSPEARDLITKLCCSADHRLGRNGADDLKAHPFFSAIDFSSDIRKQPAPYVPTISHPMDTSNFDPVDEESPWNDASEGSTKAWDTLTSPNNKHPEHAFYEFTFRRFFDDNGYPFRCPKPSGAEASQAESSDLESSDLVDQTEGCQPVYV
The experiment in a line: Selectivity interaction (KinomeScan (DiscoverX)) EUB0000695a LATS2. The settings on record: at 100 nM.

Assay [5] concerns the target Serine/threonine-protein kinase 16 (Homo sapiens, UniProt O75716). The experiment in a line: Selectivity interaction (KinomeScan (DiscoverX)) EUB0000045b STK16.
The target of assay [6] is T3, Mitogen-activated protein kinase 12 (Homo sapiens) (UniProt P53778).
T3 sequence (whole entry): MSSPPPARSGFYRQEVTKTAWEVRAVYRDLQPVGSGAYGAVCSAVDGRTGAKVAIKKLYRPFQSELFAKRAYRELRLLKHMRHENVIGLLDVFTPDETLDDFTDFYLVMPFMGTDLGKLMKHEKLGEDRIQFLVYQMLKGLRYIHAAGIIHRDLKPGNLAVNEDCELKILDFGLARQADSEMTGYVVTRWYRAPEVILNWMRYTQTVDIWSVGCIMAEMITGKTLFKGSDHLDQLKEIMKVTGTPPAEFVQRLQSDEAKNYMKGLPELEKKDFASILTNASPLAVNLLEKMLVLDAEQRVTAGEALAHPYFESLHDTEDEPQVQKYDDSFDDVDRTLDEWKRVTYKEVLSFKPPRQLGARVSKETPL
As to the kind of experiment: Selectivity interaction (KinomeScan (DiscoverX)) EUB0000655a MAPK12. As to conditions: at 10 µM.

Chain of Serine/threonine-protein kinase 16 (O75716 whole entry): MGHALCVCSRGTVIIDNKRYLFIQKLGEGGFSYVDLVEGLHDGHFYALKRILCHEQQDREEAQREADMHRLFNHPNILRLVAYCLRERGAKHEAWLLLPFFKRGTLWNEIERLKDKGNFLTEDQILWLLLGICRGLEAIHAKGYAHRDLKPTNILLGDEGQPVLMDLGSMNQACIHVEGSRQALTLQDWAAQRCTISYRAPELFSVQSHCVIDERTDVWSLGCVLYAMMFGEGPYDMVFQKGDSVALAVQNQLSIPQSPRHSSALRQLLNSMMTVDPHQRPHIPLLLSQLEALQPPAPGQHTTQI
Chain of Casein kinase I isoform alpha (P48729 2-337 limits assumed): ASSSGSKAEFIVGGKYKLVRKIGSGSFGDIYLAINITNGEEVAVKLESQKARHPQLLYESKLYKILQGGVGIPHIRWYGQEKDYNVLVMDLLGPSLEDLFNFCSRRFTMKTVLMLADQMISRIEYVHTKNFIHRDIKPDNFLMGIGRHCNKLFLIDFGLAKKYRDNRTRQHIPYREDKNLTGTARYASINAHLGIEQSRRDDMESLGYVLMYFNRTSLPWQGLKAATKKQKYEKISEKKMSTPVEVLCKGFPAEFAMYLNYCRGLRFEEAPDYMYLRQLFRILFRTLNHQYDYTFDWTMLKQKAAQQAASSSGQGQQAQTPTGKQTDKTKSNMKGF
Chain of Mitogen-activated protein kinase 1 (P28482 whole entry, canonical isoform): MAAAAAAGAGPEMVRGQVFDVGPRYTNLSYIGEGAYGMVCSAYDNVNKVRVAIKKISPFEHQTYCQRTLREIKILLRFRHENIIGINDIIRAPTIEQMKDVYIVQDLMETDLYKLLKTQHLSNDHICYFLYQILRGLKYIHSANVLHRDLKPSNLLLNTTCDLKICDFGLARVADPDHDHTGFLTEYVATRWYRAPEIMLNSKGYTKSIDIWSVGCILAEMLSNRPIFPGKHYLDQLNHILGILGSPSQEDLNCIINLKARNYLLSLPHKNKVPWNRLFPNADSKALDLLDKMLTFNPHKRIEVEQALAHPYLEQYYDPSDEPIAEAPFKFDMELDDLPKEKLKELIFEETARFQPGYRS

Turning to `Cn1cc(-n2cnc3c(NCc4nc5cc(Cl)c(Cl)cc5[nH]4)nc(N4CCOCC4)nc32)cn1`, the % of inhibition in assay [1] came out at 5.79%.
`N#Cc1cccc(-c2c[nH]c3ncnc(N4CCOCC4)c23)c1`: in assay [2], the % of inhibition was -7%.
With `CCN(CC)CCCCNc1ncc2cc(-c3cc(OC)cc(OC)c3)c(NC(=O)NC(C)(C)C)nc2n1`, in assay [3], the % of control was determined as 100%.
On to `Cc1cc(F)c(C(=O)Nc2cccc(-c3nncn3C(C)C)n2)cc1-n1cnc(C2CC2)c1`, for which the % of control in assay [4] is 89%.
Regarding `C=CC(=O)Nc1cc(-n2c(=O)ccc3cnc4ccc(-c5ccc(NS(C)(=O)=O)cc5)cc4c32)ccc1C`, the % of control in assay [5] (at 1 µM) is 98%; in assay [5] (at 10 µM), 28%.
`CN(C)CCOc1ccc(-c2nc(-c3ccncc3)c(-c3ccc4c(c3)CC/C4=N\O)[nH]2)cc1`: the % of control in assay [6] was 77%.
